The nature of data set [1]: Test of in vitro efficacy: in vitro sun protection factor (Diffey method) of O/W emulsions. The note with it: screening agent 5% in O/W support, mean of three SPF values. The source says: Test of In Vitro Efficacy:
The method for evaluating the protection factor used is the in vitro method described by B. L. Diffey et al. in J. Soc. Cosmet. Chem. 40-127-133 (1989), which consists in determining the monochromatic protection factors every 5 nm in a wavelength range from 290 to 400 nm, and in calculating therefrom the sun protection factor according to a given mathematical equation.
Two screening agents of triazine type were formulated in a support of O/W type, at 5% by weight, in the solvent according to the invention and in a comparative solvent (Finsolv TN), and three SPF values, the mean and the standard deviation of which are collated in the table below, were determined for each formulation: […]

The nature of data set [2]: Comparative study of the solubility of a triazine derivative in different solvents. It counts as physicochemical. The note with it: heated to 83° C., crystals observed after 24 hours and cooling to room temperature. How it is done: Comparative Study of the Solubility of a Triazine Derivative in Different Solvents The solubility of a triazine derivative (i.e., 2,4,6-tris(diisobutyl 4′-aminobenzalmalonate)-s-triazine) in different solvents was determined by means of the following test:
20 g of solvent are added, at room temperature, to 5 g of screening agent, the mixture thus obtained is brought to 83° C. using a water bath, the presence or absence of crystals is observed after 24 hours and cooling to room temperature.
The results obtained are collated in the table below (the chemical names are given in the CTFA nomenclature, 5th edition, 1993).

The mark [3] stands for this setting: solvent 15% C12-C15 alkyl benzoate "Finsolv TN" (comparative).
Where [4] appears, read: solvent 15% n-butylphthalimide/isopropylphthalimide Pelemol BIP (invention).

Turning to `CC(C)COC(=O)C(=Cc1ccc(Nc2nc(Nc3ccc(C=C(C(=O)OCC(C)C)C(=O)OCC(C)C)cc3)nc(Nc3ccc(C=C(C(=O)OCC(C)C)C(=O)OCC(C)C)cc3)n2)cc1)C(=O)OCC(C)C` [2,4,6-tris(diisobutyl 4′-aminobenzalmalonate)-s-triazine], the results for the “Mean SPF (Standard Deviation)” value in data set [1] (setting [3]) and in data set [1] (setting [4]) were 4.1 and 8.0, respectively. Moreover, the “SOLUBILITY OF THE TRIAZINE SCREENING AGENT” value in data set [2] (solvent: C8-C12 fatty acid triglycerides "Miglyol 812") is given as less than 10%; in data set [2] (solvent: C12-C15 alkyl benzoate "Finsolv TN"), less than 10%; in data set [2] (solvent: PPG-3 myristyl ether "Witconol APM") it was less than 10%; in data set [2] (solvent: n-butylphthalimide/isopropylphthalimide eutectic mixture Pelemol BIP (invention)), 40%.

Turning to `CCCCC(CC)COc1ccc(-c2nc(-c3ccc(OC)cc3)nc(-c3ccc(OCC(CC)CCCC)cc3O)n2)c(O)c1` (centres unmarked) [Anisotriazine], the “Mean SPF (Standard Deviation)” value in data set [1] (setting [3]) is given as 8.5; in data set [1] (setting [4]), 11.4.
